Measured values: patent US9216968B2, “Heterocyclic derivative and pharmaceutical drug” (NIPPON SHINYAKU CO., LTD., priority 2011, dated 2015)
Structures can show the parent of a compound that is named as a salt.

Columns and labels:
human mPGES-1 = human mPGES-1 (Homo sapiens (Human), UniProt O14684); experiment: mPGES-1 inhibiting activity (microsome fractions, PGE2 by HTRF); format: biochemical; details: microsomes from CHO-K1 cells transfected with human mPGES-1; PGH2 1 μM, 4° C., 60 seconds; read-out: mPGES-1 Inhibition IC50
Method in brief: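 PGE2 formation read by HTRF after 60 s at 4 °C with 1 μM PGH2 substrate, following 20 min compound preincubation (1% DMSO) with human mPGES-1 microsomes from transfected CHO-K1 cells. Buffer: potassium phosphate, reduced glutathione, pH 7.4; IC50 from activity relative to enzyme-free blank.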

A549 cells = experiment: Inhibition of PGE2 production in A549 cell (IL-1β stimulated); format: cell-based, human; details: Homo sapiens, A549, 24 h, IL-1β 5 ng/well, PGE2 in culture medium
Method in brief: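 A549 cells preincubated 60 min with compound in RPMI/3% FBS (final DMSO 0.10), then stimulated with IL-1β (5 ng/well) for 24 h at 37 °C. PGE2 measured by HTRF and PGF2α by EIA in medium; IC50 from inhibition relative to stimulated minus unstimulated production.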

Sequence of human mPGES-1 (O14684 whole entry): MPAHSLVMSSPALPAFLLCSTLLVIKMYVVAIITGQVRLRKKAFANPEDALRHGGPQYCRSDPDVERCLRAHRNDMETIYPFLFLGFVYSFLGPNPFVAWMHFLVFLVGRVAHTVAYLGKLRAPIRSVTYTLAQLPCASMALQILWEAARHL

IC50 (human mPGES-1) | IC50 (A549 cells) | SMILES
56.2 nM | 104 nM | COCc1nc2c(C(=O)Nc3cccc(Cl)c3C)cc(NC(=O)c3ncccc3F)cc2[nH]1 [Example 244, N-(3-Chloro-2-methylphenyl)-6-{[(3-fluoropyridin-2-yl)carbonyl]amino}-2-(methoxymethyl)-1H-benzimidazole-4-carboxamide hydrochloride]
25.7 nM | 166 nM | COCc1nc2c(C(=O)Nc3cccc(Cl)c3C)cc(NC(=O)c3ccncc3Cl)cc2[nH]1 [Example 245, N-(3-Chloro-2-methylphenyl)-6-{[(3-chloropyridin-4-yl)carbonyl]amino}-2-(methoxymethyl)-1H-benzimidazole-4-carboxamide hydrochloride]
35.9 nM | 132 nM | COCc1nc2c(C(=O)Nc3cccc(Cl)c3C)cc(NC(=O)c3c(Cl)cncc3Cl)cc2[nH]1 [Example 246, N-(3-Chloro-2-methylphenyl)-6-{[(3,5-dichloropyridin-4-yl)carbonyl]amino}-2-(methoxymethyl)-1H-benzimidazole-4-carboxamide hydrochloride]

Second part, the compound before the results:

SMILES | IC50 (human mPGES-1) | IC50 (A549 cells)
COCc1nc2c(C(=O)Nc3nc4ccc(Cl)cc4o3)cc(NC(=O)c3ccccc3C(F)(F)F)cc2[nH]1 [Example 233, N-(6-Chloro-1,3-benzoxazol-2-yl)-2-(methoxymethyl)-6-({[2-(trifluoromethyl)phenyl]carbonyl}amino)-1H-benzimidazole-4-carboxamide hydrochloride] | 2.5 nM | 195 nM
COCc1nc2c(C(=O)Nc3cccc(Cl)c3CO)cc(NC(=O)c3ccccc3C(F)(F)F)cc2[nH]1 [Example 234, N-[3-Chloro-2-(hydroxymethyl)phenyl]-2-(methoxymethyl)-6-({[2-(trifluoromethyl)phenyl]carbonyl}amino)-1H-benzimidazole-4-carboxamide] | 97.4 nM | 198 nM
CCCCOc1ccc(Cl)c(C(=O)Nc2cc(C(=O)Nc3cccc(Cl)c3C)c3nc(COC)[nH]c3c2)c1 [Example 247, 6-{[(5-Butoxy-2-chlorophenyl)carbonyl]amino}-N-(3-chloro-2-methylphenyl)-2-(methoxymethyl)-1H-benzimidazole-4-carboxamide hydrochloride] | 68.4 nM | 55 nM
